Laboratory results published in patent publication US20220030866A1, “CONJUGATES OF AUXIN ANALOGS” (The State of Israel, Ministry of Agriculture & Rural …, priority 2019, published 2022).

Legend:
Assay type in all cases: in vivo
[1] = tested on: cuttings from mature Eucalyptus grandis trees; experiment: rooting of cuttings from mature Eucalyptus grandis trees; conditions: for rooting percentage of eucalyptus cuttings: Example 12: 6000 ppm IBA potassium salt and 50 μM conjugate dip 1 minute, leaves sprayed with 50 μM; for rooting compared with Compound 1a (4-CPA-ethanolamine), in words: 100 μM, submerging and/or spraying, with or without 6000 ppm IBA
Protocol: Eight-year-old Eucalyptus grandis plants were grown from seeds and placed in a net house in 20 liter pots containing peat and tuff (70:30, v/v), drip irrigated and fertilized with 3 liters of Shefer™ 737 liquid fertilizer (ICL Fertilizers, Israel) per cubic meter of water. Cuttings were collected from branches which grew 2-2.5 meters above the ground. Cuttings were 2-3 mm thick branches, 15 cm long, with 1-2 pairs of leaves. The leaf blades were cut in half to decrease transpiration. Cuttings were treated with 6000 ppm IBA (potassium indole-3-butyric acid) for 1 minute with or without 100 μM of each tested compound. The tested compounds were either applied to the base of the cutting, with or without IBA and/or sprayed on the foliage in the presence of 0.05% Triton™ X-100 surfactant. Cuttings were rooted in rooting tables heated to 25° C. under constant 90% humidity, in a controlled-climate greenhouse. The rooting medium contained crushed polystyrene foam: vermiculite no. 3: pit (3:2:1, v/v/v). Rooting was recorded after 30-60 days. Roots system architecture was analyzed by WinRHIZO™ system scanner and software.
Exemplary conjugates prepared as described in Example 1 were tested for their ability to promote adventitious root (AR) formation in cuttings from mature eucalyptus (Eucalyptus grandis) trees. In this model, AR formation is difficult to induce, with 5-15% root development in the presence of IBA potassium salt [Abu-Abied et al., Plant J 2012, 71:787-799], such that effective AR formation indicates a potent root formation activity.
Various concentrations and mode of applications were tested for each compound in the presence or absence of IBA (the “gold standard” rooting enhancer). A concentration of 100 μM of each conjugate was used for an initial screen of 37 conjugates, in which the compounds were applied to the base of the cutting by dipping (submerging the cutting base in a solution of the conjugate for one minute) or to the foliage by spraying. After 45 days, the cuttings were scored for the presence of callus or roots.
Conjugates prepared as described herein were evaluated in a Eucalyptus grandis rooting model, according to procedures such as described hereinabove. The bases of cuttings (a 12-15 cm long branch with the two upper leaves, whose blades were cut in half) were dipped in a solution containing 6000 ppm IBA potassium salt and 50 μM of conjugate for 1 minute, and the leaves were sprayed with 50 μM of the same conjugate (mixed with 0.5% Triton™ X-100 surfactant). The cuttings were imbedded in a heated (25° C.) rooting table containing a 1:2:3 ratio of peat:vermiculite:polystyrene, under 90% relative humidity.

mung bean cuttings = experiment: rooting of mung bean cuttings (number of adventitious roots per cutting); conditions: for effect on AR formation in mung bean cuttings, in words: tested at 2, 10 or 50 μM
Protocol: Mung bean cuttings have been used for many years as a model for assessing the effect of plant hormones and synthetic chemicals on the rooting process. In the present study, this system was used to ascertain activity of conjugates in inducing adventitious root (AR) formation, and to evaluate the rate of conjugate hydrolysis that releases the free active auxin. […] The rooting activity in this system is determined by the number of adventitious roots per cutting.
The mung bean model was used to examine the activity of conjugates of three phenoxy acids, 4-CPA, MCPA, and 2-DP, on rooting. For comparison, plants were treated with (unconjugated) IBA or with 2-DP conjugated to glycine methyl ester (Gly-ME).

[2] = tested on: avocado rootstock cuttings; experiment: rooting of avocado rootstock cuttings; conditions: vc51 rootstock, IBA with compound; for rooting success rate of green avocado branches, in words: compared with IBA alone
Description: Avocado rootstock is extremely difficult to root. Currently, the common technique for propagating clones of avocado rootstock is to graft the desired rootstock on a seedling, and transfer to the dark to generate an etiolated branch. This branch can be rooted and grafted with the desired variety while still grafted on the seed [Frolich & Platt, California Avocado Society 1971-72 Yearbook 1972, 55:97-109]. However, the preparation of such twice-grafted seedlings is time-consuming and expensive.
The ability of exemplary conjugates to promote rooting in green avocado cuttings (in the presence of IBA) was therefore examined. In particular, Compounds 2h (MCPA-methanol), 4b (NAA-β-alanine methyl ester), 3g (2-DP-methyl-4-aminobenzoate), 3f (2-DP-p-toluidine), 1l (4-CPA-morpholine) and is (4-CPA-D-Trp) were tested.
Exemplary conjugates were also tested for rooting the hard-to-root species of avocado (VC801 rootstock) and argan, according to procedures described hereinabove.

Arabidopsis seedlings = experiment: root elongation inhibition in Arabidopsis seedlings; conditions: 50 nM, after 5 days
Protocol: Adventitious roots (ARs) were induced in intact plants, using previously described procedures [Gutierrez et al., Plant Cell 2009, 21:3119-3132; Abu-Abied et al., Plant J 2012, 71:787-799; Rasmussen et al., Plant Physiol 2012, 158:1976-1987]. Briefly, seeds were germinated on MS/0.8% agar plates supplemented with 3% sucrose. The plates were kept in the dark for 2 days at 4° C., then 5 days at 22° C. in the dark, 2 days in the light, 3 days in the dark and then additional 4 days in the light to complete 2 weeks when roots were counted using a stereoscope. Sensitivity to auxin and/or auxin analogs was determined by following root elongation on vertical plates. The 4-day-old seedlings were transferred to MS plates containing 0.05 or 0.5 μM IAA and the root length was measured after 5 days, including the number of LRs in each root and calculation of the LR density. Each treatment experiment included 10-15 plants and was repeated 3 times.
A common technique for evaluating auxin activity is by determining the ability of a compound to inhibit root elongation [Zolman et al., Genetics 2000, 156:1323-1337]. In order to use this assay for comparing auxin activities of different conjugates, the minimum concentration of free 4-CPA that is active in the root elongation inhibition assay was determined. Four days old seedlings were placed in vertical plates containing increasing concentrations of 4-CPA. The root lengths were marked daily during 5 days.
Based on the above results, the effect of conjugates of 4-CPA (Compounds 1o-1t) on root elongation after 5 days was determined at concentrations of 50 nM.

[3] = Table 1, 50 μM, water control 29.6
[4] = Table 1, 10 μM, water control 29.6

## COC(=O)[C@@H](CC(C)C)NC(=O)COc1ccc(Cl)cc1 [4-CPA-D-Leu-methyl ester]
[1]
  rooting percentage of eucalyptus cuttings: 5%

## COC(=O)[C@H]1CCCN1C(=O)COc1ccc(Cl)cc1 [4-CPA-D-Pro-methyl ester]
[1]
  rooting percentage of eucalyptus cuttings: 10%

## Cc1ccc(NC(=O)COc2ccc(Cl)cc2)nc1 [Compound 1c]
Mung bean cuttings; [3]
  rooting of mung bean cuttings (number of roots per cutting): 0

## COC(=O)c1ccnc(NC(=O)COc2ccc(Cl)cc2)c1 [Compound 1d]
Mung bean cuttings; [4]
  rooting of mung bean cuttings (number of roots per cutting): 0
Mung bean cuttings; [3]
  rooting of mung bean cuttings (number of roots per cutting): 0

## Cc1ccccc1NC(=O)COc1ccc(Cl)cc1 [Compound 1e]
Mung bean cuttings; [3]
  rooting of mung bean cuttings (number of roots per cutting): 0

## CCC(C)NC(=O)COc1ccc(Cl)cc1 (stereo not drawn) [Compound 1i]
[1]
  rooting compared with Compound 1a (4-CPA-ethanolamine), in words: not more effective at inducing rooting
Mung bean cuttings; Table 2, 2 μM
  rooting of mung bean cuttings (number of roots per cutting): 23
Mung bean cuttings; Table 2, 10 μM
  rooting of mung bean cuttings (number of roots per cutting): 25
Mung bean cuttings; Table 2, 50 μM
  rooting of mung bean cuttings (number of roots per cutting): 0

## CCCCNC(=O)COc1ccc(Cl)cc1 [Compound 1j]
[1]
  rooting compared with Compound 1a (4-CPA-ethanolamine), in words: not more effective at inducing rooting
Mung bean cuttings; Table 2, 2 μM
  rooting of mung bean cuttings (number of roots per cutting): 22
Mung bean cuttings; Table 2, 10 μM
  rooting of mung bean cuttings (number of roots per cutting): 0
Mung bean cuttings; Table 2, 50 μM
  rooting of mung bean cuttings (number of roots per cutting): 0

## O=C(COc1ccc(Cl)cc1)N1CCCCC1 [Compound 1k]
[1]
  rooting compared with Compound 1a (4-CPA-ethanolamine), in words: not more effective at inducing rooting
Mung bean cuttings; Table 2, 2 μM
  rooting of mung bean cuttings (number of roots per cutting): 25
Mung bean cuttings; Table 2, 10 μM
  rooting of mung bean cuttings (number of roots per cutting): 34
Mung bean cuttings; Table 2, 50 μM
  rooting of mung bean cuttings (number of roots per cutting): 0

## O=C(COc1ccc(Cl)cc1)N1CCOCC1 [Compound 1l, 4-CPA-morpholine]
[1]
  rooting compared with Compound 1a (4-CPA-ethanolamine), in words: not more effective at inducing rooting
Mung bean cuttings; Table 2, 2 μM
  rooting of mung bean cuttings (number of roots per cutting): 23
Mung bean cuttings; Table 2, 10 μM
  rooting of mung bean cuttings (number of roots per cutting): 0
Mung bean cuttings; Table 2, 50 μM
  rooting of mung bean cuttings (number of roots per cutting): 0
[2]
  roots per cutting of green avocado branches compared with etiolated branches treated with IBA, in words: considerably more roots per cutting
  rooting success rate of green avocado branches, in words: considerably enhanced the rooting success rate

## O=C(COc1ccc(Cl)cc1)N(CCO)CCO [Compound 1m]
[1]
  rooting compared with Compound 1a (4-CPA-ethanolamine), in words: not more effective at inducing rooting

## CN(CCO)C(=O)COc1ccc(Cl)cc1 [Compound 1n]
[1]
  rooting compared with Compound 1a (4-CPA-ethanolamine), in words: not more effective at inducing rooting
Mung bean cuttings; Table 2, 2 μM
  rooting of mung bean cuttings (number of roots per cutting): 16
Mung bean cuttings; Table 2, 10 μM
  rooting of mung bean cuttings (number of roots per cutting): 24
Mung bean cuttings; Table 2, 50 μM
  rooting of mung bean cuttings (number of roots per cutting): 35
Mung bean cuttings
  effect on AR formation in mung bean cuttings, in words: moderate rooting activity at 50 μM

## COC(=O)C[C@@H](NC(=O)COc1ccc(Cl)cc1)C(=O)OC [Compound 1q, 4-CPA-D-Asp-methyl diester]
Arabidopsis seedlings
  effect on root elongation relative to control, in words: did not affect root elongation
Mung bean cuttings; Table 2, 2 μM
  rooting of mung bean cuttings (number of roots per cutting): 67
Mung bean cuttings; Table 2, 10 μM
  rooting of mung bean cuttings (number of roots per cutting): 0
Mung bean cuttings; Table 2, 50 μM
  rooting of mung bean cuttings (number of roots per cutting): 0

## CC(Oc1ccc(Cl)cc1Cl)C(=O)O (stereo not drawn) [Compound 2-DP, 2-(2,4-dichlorophenoxy)propionic acid, reference compound]
Mung bean cuttings
  effect on AR formation in mung bean cuttings, in words: positively correlated to dose

## Cc1cc(Cl)ccc1OCC(=O)NCCO [Compound 2a]
Mung bean cuttings; [4]
  rooting of mung bean cuttings (number of roots per cutting): 34.7
Mung bean cuttings; [3]
  rooting of mung bean cuttings (number of roots per cutting): 72.1

## COC(=O)CCNC(=O)COc1ccc(Cl)cc1C [Compound 2b]
Mung bean cuttings; [4]
  rooting of mung bean cuttings (number of roots per cutting): 94.8
Mung bean cuttings; [3]
  rooting of mung bean cuttings (number of roots per cutting): 63.2

## Cc1ccc(NC(=O)COc2ccc(Cl)cc2C)nc1 [Compound 2c]
Mung bean cuttings; [4]
  rooting of mung bean cuttings (number of roots per cutting): 0
Mung bean cuttings; [3]
  rooting of mung bean cuttings (number of roots per cutting): 0

## COC(=O)c1ccnc(NC(=O)COc2ccc(Cl)cc2C)c1 [Compound 2d]
Mung bean cuttings; [4]
  rooting of mung bean cuttings (number of roots per cutting): 64.3
Mung bean cuttings; [3]
  rooting of mung bean cuttings (number of roots per cutting): 0

## Cc1ccccc1NC(=O)COc1ccc(Cl)cc1C [Compound 2e]
Mung bean cuttings; [4]
  rooting of mung bean cuttings (number of roots per cutting): 23.6
Mung bean cuttings; [3]
  rooting of mung bean cuttings (number of roots per cutting): 0

## Cc1ccc(NC(=O)COc2ccc(Cl)cc2C)cc1 [Compound 2f]
Mung bean cuttings; [4]
  rooting of mung bean cuttings (number of roots per cutting): 0
Mung bean cuttings; [3]
  rooting of mung bean cuttings (number of roots per cutting): 0

## COC(=O)c1ccc(NC(=O)COc2ccc(Cl)cc2C)cc1 [Compound 2g]
Mung bean cuttings; [4]
  rooting of mung bean cuttings (number of roots per cutting): 0
Mung bean cuttings; [3]
  rooting of mung bean cuttings (number of roots per cutting): 0

## COC(=O)COc1ccc(Cl)cc1C [Compound 2h, MCPA-methanol]
[2]
  roots per cutting of green avocado branches compared with etiolated branches treated with IBA, in words: considerably more roots per cutting
  rooting success rate of green avocado branches, in words: considerably enhanced the rooting success rate

## CC(Oc1ccc(Cl)cc1Cl)C(=O)NCCO (stereo not drawn) [Compound 3a]
Mung bean cuttings; [4]
  rooting of mung bean cuttings (number of roots per cutting): 26.4
Mung bean cuttings; [3]
  rooting of mung bean cuttings (number of roots per cutting): 24.1

## COC(=O)c1ccnc(NC(=O)C(C)Oc2ccc(Cl)cc2Cl)c1 (stereo not drawn) [Compound 3d]
Mung bean cuttings; [4]
  rooting of mung bean cuttings (number of roots per cutting): 41.6
Mung bean cuttings; [3]
  rooting of mung bean cuttings (number of roots per cutting): 85.8

## Cc1ccccc1NC(=O)C(C)Oc1ccc(Cl)cc1Cl (stereo not drawn) [Compound 3e]
Mung bean cuttings; [4]
  rooting of mung bean cuttings (number of roots per cutting): 37.3
Mung bean cuttings; [3]
  rooting of mung bean cuttings (number of roots per cutting): 41.7

## COC(=O)c1ccc(NC(=O)C(C)Oc2ccc(Cl)cc2Cl)cc1 (stereo not drawn) [Compound 3g, 2-DP-methyl-4-aminobenzoate]
Mung bean cuttings; [4]
  rooting of mung bean cuttings (number of roots per cutting): 46.2
Mung bean cuttings; [3]
  rooting of mung bean cuttings (number of roots per cutting): 46.4
[2]
  roots per cutting of green avocado branches compared with etiolated branches treated with IBA, in words: considerably more roots per cutting
  rooting success rate of green avocado branches, in words: considerably enhanced the rooting success rate

## COC(=O)CCNC(=O)Cc1cccc2ccccc12 [Compound 4b, NAA-β-alanine methyl ester]
[2]
  roots per cutting of green avocado branches compared with etiolated branches treated with IBA, in words: considerably more roots per cutting
  rooting success rate of green avocado branches, in words: considerably enhanced the rooting success rate
